Measurements published in ChEMBL document CHEMBL1201862, “PubChem BioAssay data set” (2004).
Active and inactive are the calls of the source.

How the values were obtained:
[1] = molecular target: Tumor necrosis factor (Homo sapiens, UniProt P01375); experiment: analog potency on TNFa NF-kB signaling – cell-based, revised, SAR follow-up (AID 2337); type: functional
[2] = molecular target: Interleukin-8 (Homo sapiens, UniProt P10145); experiment: SAR analysis of tumor necrosis factor alpha (TNF-alpha) induced IL-8 secretion in MCF-7/NOD1 cells. [Related pubchem assays (depositor defined):AID1575, AID2250, AID2260]; type: functional, cell-based
Chain of Interleukin-8 (P10145 whole entry): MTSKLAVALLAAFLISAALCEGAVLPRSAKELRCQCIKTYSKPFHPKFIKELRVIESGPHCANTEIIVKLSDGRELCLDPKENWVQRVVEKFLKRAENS

[3] = system: HEK293; experiment: cells; settings: Homo sapiens;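 also: cells exposed to compound for 14 hours overnight before viability readout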
[4] = molecular target: T1, Eukaryotic translation initiation factor 4H (Homo sapiens, UniProt Q15056); experiment: inhibitors of translation initiation factor eIF4H – SAR follow-up (AID 435011); type: functional
[5] = molecular target: T2, Polyadenylate-binding protein 1 (Homo sapiens, UniProt P11940); experiment: blockers of PABP interaction with poly(A) – biochemical, fluorescence polarization, […] (AID 2014)
T2 sequence (P11940 whole entry): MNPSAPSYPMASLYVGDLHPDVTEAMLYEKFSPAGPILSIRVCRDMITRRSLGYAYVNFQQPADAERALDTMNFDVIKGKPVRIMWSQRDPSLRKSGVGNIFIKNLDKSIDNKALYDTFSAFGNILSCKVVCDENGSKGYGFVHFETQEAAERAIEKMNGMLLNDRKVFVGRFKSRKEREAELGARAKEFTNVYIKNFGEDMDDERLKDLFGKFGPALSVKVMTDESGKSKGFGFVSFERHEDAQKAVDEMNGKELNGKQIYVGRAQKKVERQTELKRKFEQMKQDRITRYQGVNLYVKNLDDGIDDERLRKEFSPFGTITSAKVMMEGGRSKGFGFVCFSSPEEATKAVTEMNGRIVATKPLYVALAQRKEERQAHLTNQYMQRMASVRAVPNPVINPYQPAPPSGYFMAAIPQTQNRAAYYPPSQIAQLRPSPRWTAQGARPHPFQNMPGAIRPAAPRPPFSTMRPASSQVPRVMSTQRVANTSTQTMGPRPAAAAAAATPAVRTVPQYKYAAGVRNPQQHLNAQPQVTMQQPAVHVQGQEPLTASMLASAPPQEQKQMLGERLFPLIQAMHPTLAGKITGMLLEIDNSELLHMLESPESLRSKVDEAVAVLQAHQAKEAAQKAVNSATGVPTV

[6] = molecular target: T2, Polyadenylate-binding protein 1; experiment: PABP inhibition in translation initiation, SAR follow-up (AID 435018); type: functional
[7] = molecular target: T1, Eukaryotic translation initiation factor 4H; experiment: eIF4H binding inhibition – biochemical, uHTS, fluorescence polarization, translation initiation inhibitor project, primary screen (AID 2012)
[8] = system: Staphylococcus aureus; experiment: Inhibitors of Bacterial Quorum Sensing Structure Activity Relationship (SAR) Analysis: Dose Response Assay. [Related pubchem assays: 700, 527 ]; type: functional, organism-based
[9] = molecular target: T3, Neuropeptides B/W receptor type 1 (Homo sapiens, UniProt P48145); experiment: Fluorescence-based dose response cell-based high throughput screening assay to identify antagonists of the G-protein coupled receptor 7 (GPR7). [Related pubchem assays: 1952 (Screening assay (GPR7 antagonists).), 1880 (Summary AID.)]; type: functional
T3 sequence (P48145 whole entry): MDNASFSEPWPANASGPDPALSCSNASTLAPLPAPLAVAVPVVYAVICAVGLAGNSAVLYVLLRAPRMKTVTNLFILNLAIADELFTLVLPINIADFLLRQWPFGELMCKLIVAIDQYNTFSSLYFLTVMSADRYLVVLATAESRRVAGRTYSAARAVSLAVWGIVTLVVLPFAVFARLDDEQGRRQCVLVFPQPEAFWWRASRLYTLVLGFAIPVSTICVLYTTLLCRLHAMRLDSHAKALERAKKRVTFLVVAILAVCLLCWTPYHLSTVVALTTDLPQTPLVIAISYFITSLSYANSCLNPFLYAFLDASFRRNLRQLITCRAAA

[10] = molecular target: Melanin-concentrating hormone receptor 1 (Homo sapiens, UniProt Q99705); experiment: Fluorescence-based counterscreen for antagonists of the G-protein coupled receptor 7 (GPR7): cell-based high throughput dose response assay to identify antagonists of the melanin-concentrating hormone receptor 1 (MCHR1).; type: functional
Chain of Melanin-concentrating hormone receptor 1 (Q99705 whole entry): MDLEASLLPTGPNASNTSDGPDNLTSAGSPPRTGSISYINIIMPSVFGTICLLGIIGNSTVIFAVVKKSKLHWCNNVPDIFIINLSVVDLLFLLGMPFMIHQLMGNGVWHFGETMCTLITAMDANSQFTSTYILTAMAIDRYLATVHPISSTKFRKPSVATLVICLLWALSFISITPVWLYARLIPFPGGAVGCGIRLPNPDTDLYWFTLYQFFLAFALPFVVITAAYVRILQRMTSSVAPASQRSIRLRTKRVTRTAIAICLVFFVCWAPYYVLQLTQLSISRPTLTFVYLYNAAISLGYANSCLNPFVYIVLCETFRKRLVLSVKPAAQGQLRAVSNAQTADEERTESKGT

[11] = molecular target: Procathepsin L (Homo sapiens, UniProt P07711)
Chain of Procathepsin L (P07711 whole entry): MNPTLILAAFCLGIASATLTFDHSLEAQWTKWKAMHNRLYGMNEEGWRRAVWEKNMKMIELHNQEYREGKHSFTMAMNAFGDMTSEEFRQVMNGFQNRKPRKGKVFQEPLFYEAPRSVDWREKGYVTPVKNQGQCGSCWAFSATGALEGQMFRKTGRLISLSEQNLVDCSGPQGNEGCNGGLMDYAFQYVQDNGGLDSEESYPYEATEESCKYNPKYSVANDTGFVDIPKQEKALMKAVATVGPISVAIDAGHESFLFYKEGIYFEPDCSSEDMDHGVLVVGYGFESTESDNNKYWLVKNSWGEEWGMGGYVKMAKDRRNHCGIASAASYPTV

[12] = molecular target: T4, Leucine aminopeptidase (Plasmodium falciparum 3D7, UniProt Q8IL11); experiment: P. falciparum M17LAP inhibitors, primary screen, biochemical, fluorogenic H-Leu-NHMec substrate, 1536-well (AID 1619); type: functional
T4 sequence (Q8IL11 whole entry): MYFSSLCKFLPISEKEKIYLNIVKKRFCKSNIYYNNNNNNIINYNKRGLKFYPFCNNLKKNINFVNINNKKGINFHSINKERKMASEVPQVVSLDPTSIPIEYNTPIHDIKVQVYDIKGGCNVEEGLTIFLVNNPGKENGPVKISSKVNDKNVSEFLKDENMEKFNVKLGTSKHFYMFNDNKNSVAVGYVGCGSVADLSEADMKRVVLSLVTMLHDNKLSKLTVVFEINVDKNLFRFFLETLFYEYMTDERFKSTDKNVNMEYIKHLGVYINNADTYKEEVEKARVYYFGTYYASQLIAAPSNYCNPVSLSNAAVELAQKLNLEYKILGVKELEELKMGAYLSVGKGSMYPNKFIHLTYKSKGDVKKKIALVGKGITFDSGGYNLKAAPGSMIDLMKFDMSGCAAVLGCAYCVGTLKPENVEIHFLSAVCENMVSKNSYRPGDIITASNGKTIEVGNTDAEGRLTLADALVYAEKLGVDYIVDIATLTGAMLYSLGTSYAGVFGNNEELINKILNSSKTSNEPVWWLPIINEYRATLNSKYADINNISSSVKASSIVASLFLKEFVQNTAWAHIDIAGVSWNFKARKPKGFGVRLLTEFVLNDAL

[13] = molecular target: Large T antigen (Simian virus 40, UniProt P03070); type: functional, Betapolyomavirus macacae;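 also: Confirmatory-stage PubChem screen for compounds that inhibit SV40 T antigen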
[14] = molecular target: T5, Estrogen receptor beta (Homo sapiens, UniProt Q92731);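 also: recombinant ER-beta bound to coactivator SRC1 peptide in presence of estradiol agonist; inhibitors block coactivator peptide binding and lower the FRET signal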
T5 sequence (Q92731 whole entry): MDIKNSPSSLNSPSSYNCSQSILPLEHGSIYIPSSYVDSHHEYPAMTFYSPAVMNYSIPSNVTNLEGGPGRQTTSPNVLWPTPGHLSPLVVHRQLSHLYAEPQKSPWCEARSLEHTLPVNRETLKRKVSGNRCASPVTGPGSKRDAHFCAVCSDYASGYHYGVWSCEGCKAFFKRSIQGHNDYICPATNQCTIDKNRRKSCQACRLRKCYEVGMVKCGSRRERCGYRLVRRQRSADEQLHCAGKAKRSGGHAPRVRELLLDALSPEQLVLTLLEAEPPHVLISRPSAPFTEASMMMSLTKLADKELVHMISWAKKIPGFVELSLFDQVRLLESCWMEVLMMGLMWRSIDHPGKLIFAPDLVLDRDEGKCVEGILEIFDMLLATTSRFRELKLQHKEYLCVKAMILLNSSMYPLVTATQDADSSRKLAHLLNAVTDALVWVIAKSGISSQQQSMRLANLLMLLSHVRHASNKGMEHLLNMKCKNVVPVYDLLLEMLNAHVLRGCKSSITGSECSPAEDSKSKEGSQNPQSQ

[15] = molecular target: Aspartyl aminopeptidase (Plasmodium falciparum 3D7, UniProt Q8I2J3)
Chain of Aspartyl aminopeptidase (Q8I2J3 whole entry): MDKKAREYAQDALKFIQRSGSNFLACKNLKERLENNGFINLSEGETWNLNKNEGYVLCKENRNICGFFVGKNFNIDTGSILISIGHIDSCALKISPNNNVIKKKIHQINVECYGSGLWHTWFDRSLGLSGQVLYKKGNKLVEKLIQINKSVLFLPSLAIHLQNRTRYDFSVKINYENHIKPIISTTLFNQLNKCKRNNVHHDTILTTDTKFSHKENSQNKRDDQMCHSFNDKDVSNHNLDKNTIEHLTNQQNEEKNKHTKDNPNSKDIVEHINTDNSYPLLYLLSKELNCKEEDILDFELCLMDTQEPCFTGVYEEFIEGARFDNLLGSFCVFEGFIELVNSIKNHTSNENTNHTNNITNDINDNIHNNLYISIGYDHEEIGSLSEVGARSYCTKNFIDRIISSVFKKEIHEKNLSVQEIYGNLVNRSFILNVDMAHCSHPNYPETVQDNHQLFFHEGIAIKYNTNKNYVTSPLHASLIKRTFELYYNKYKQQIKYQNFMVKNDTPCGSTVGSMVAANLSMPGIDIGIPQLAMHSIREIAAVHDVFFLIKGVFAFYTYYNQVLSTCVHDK

[16] = molecular target: T5, Estrogen receptor beta; experiment: blockers of SRC-3 recruitment to ERβ – biochemical, ELISA, streptavidin-HRP readout, orthogonal assay, confirmation (AID 1060)
[17] = molecular target: T6, Bcl-2-like protein 10 (Homo sapiens, UniProt Q9HD36); experiment: Bcl-B/TR3 peptide binding disruption – biochemical, fluorescence polarization, FITC-TR3 peptide, selectivity assay for Bfl-1 inhibitor project, primary screen (AID 748);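 also: fluorescence polarization from a fluorescein-labelled TR3 peptide binding purified Bcl-B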
T6 sequence (Q9HD36 whole entry): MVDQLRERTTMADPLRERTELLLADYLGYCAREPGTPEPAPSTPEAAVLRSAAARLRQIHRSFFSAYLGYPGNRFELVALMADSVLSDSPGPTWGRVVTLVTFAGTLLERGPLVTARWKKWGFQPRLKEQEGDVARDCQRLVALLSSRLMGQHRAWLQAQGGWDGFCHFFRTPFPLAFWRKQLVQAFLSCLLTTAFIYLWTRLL

[18] = molecular target: Protein Rev (Human immunodeficiency virus type 1 group M subtype B (isolate HXB2)(HIV-1), UniProt P04618); experiment: blockers of HIV Rev/RRE RNA complex – biochemical, fluorescence polarization, HIV-1, dose response (AID 434976); parameters: species or system Human immunodeficiency virus 1
Chain of Protein Rev (Human immunodeficiency virus type 1 group M subtype B (isolate HXB2)(HIV-1), UniProt P04618) (P04618 whole entry): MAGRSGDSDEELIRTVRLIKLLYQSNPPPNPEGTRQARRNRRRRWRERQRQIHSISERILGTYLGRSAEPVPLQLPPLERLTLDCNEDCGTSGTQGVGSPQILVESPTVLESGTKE

[19] = molecular target: Female germline-specific tumor suppressor gld-1 (Caenorhabditis elegans, UniProt Q17339); experiment: blockers of GLD-1/TGE RNA complex formation – biochemical, fluorescence polarization, C. elegans, dose response (AID 2802);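 also: fluorescence polarization of labeled TGE RNA bound by purified gld-1 protein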
[20] = molecular target: Protein Rev (Human immunodeficiency virus type 1 group M subtype B (isolate WMJ22)(HIV-1), UniProt P05866); experiment: inhibitors of Rev protein–RRE RNA complex – biochemical, protein-RNA interaction, dose response (AID 842); parameters: species or system Human immunodeficiency virus 1
Chain of Protein Rev (Human immunodeficiency virus type 1 group M subtype B (isolate WMJ22)(HIV-1), UniProt P05866) (P05866 whole entry): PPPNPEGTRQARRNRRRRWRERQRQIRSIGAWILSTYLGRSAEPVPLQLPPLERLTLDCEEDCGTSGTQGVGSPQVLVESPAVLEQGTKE

[21] = viability loss in Vero cells – cytotoxicity control for Vif-APOBEC3G degradation inhibitor project, dose response (AID 1117358); type: functional; settings: Vero
[22] = alpha-synuclein stem-loop luciferase translation blockers – H4 neuroglioma cells, luminescence, confirmation (AID 1988); type: functional, cell-based
[23] = molecular target: Galanin receptor type 2 (Homo sapiens, UniProt O43603); experiment: Dose Response cell-based high-throughput screening assay to identify agonists of galanin receptor 2 (GALR2). [Related pubchem assays: 864 ]; type: functional
Chain of Galanin receptor type 2 (O43603 whole entry): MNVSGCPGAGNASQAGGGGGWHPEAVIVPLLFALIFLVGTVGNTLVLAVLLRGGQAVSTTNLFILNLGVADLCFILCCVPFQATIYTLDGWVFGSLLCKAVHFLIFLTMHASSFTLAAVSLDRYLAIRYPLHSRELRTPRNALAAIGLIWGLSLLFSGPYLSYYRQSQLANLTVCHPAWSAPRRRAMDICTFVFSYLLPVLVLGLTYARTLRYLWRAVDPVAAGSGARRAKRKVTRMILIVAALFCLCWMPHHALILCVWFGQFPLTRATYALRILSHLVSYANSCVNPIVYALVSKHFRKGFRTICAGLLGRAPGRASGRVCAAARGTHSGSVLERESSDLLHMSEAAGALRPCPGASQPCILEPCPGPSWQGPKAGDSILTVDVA

[24] = molecular target: Peroxisome proliferator-activated receptor gamma/Nuclear receptor corepressor 2 (Homo sapiens, UniProt P37231+Q9Y618); type: functional
[25] = molecular target: Photoreceptor-specific nuclear receptor (Homo sapiens, UniProt Q9Y5X4); type: functional;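 also: potency for compounds that break the NR2E3 corepressor complex and count as activators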
Chain of Photoreceptor-specific nuclear receptor (Q9Y5X4 whole entry): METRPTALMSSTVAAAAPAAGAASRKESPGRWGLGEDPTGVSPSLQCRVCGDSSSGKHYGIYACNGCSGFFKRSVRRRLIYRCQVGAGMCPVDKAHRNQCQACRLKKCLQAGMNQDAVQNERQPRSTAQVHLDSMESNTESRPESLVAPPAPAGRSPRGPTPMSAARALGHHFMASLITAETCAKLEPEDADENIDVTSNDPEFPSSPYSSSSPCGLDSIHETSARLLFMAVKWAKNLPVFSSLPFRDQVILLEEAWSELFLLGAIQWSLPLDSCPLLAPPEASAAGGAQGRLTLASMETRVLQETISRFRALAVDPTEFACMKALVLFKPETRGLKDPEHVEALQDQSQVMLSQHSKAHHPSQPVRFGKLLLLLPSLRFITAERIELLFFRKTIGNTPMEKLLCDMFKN

[26] = luciferase reporter signal suppression in cells – H4 neuroglioma cells, luminescence, dose response (AID 1990); type: functional, cell-based
[27] = Luminescence Cell-Based Dose Response HTS to Identify Inhibitors of 5'UTR Stem-Loop Driven Prion Protein mRNA Translation in H4 Neuroglioblastoma Cells. [Related pubchem assays: 1827 (Project Summary), 1813 (Primary HTS)]; type: functional
[28] = molecular target: T7, Intestinal-type alkaline phosphatase (Homo sapiens, UniProt P09923); experiment: human intestinal alkaline phosphatase activators, dose response, biochemical, luminescence, uHTS hits (AID 463120); type: functional
T7 sequence (P09923 whole entry): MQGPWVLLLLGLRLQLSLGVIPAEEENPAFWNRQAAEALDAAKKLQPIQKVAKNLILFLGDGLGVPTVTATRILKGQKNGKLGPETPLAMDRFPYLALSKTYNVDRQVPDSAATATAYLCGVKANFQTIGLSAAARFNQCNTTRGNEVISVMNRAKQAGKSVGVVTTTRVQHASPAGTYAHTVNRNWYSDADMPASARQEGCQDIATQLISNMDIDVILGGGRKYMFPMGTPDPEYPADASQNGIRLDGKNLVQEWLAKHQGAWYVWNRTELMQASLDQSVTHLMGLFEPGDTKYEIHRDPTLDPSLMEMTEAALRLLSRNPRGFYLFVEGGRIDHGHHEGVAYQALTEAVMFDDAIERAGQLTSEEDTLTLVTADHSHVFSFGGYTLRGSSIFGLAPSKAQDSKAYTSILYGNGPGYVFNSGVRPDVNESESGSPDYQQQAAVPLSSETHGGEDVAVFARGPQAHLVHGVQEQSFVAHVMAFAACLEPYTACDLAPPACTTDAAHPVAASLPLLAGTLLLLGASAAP

[29] = molecular target: T8, Alkaline phosphatase, tissue-nonspecific isozyme (Homo sapiens, UniProt P05186); experiment: activation of tissue-nonspecific alkaline phosphatase – biochemical, TNAP isozyme, human IAP uHTS hits, selectivity assay for human IAP activator project, dose response (AID 488886); type: functional;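 also: potency of compounds raising TNAP activity as a selectivity check on IAP activators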
T8 sequence (P05186 whole entry): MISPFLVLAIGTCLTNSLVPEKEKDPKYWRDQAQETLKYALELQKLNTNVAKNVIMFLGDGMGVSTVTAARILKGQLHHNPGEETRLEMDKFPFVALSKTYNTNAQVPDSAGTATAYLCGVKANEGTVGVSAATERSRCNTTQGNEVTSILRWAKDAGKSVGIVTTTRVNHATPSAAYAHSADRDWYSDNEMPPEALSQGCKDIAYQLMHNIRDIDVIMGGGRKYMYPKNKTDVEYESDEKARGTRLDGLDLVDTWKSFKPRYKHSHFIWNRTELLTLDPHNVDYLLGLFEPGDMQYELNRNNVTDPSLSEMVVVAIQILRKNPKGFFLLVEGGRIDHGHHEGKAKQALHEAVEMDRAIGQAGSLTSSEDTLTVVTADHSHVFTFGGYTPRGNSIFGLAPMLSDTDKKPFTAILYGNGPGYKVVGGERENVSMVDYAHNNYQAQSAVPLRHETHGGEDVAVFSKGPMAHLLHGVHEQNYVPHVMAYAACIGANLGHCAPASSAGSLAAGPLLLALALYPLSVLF

[30] = molecular target: T9, Intestinal-type alkaline phosphatase (Mus musculus, UniProt P24822); experiment: PubChem AID 488874; type: functional
T9 sequence (P24822 whole entry, the tested form may be a part): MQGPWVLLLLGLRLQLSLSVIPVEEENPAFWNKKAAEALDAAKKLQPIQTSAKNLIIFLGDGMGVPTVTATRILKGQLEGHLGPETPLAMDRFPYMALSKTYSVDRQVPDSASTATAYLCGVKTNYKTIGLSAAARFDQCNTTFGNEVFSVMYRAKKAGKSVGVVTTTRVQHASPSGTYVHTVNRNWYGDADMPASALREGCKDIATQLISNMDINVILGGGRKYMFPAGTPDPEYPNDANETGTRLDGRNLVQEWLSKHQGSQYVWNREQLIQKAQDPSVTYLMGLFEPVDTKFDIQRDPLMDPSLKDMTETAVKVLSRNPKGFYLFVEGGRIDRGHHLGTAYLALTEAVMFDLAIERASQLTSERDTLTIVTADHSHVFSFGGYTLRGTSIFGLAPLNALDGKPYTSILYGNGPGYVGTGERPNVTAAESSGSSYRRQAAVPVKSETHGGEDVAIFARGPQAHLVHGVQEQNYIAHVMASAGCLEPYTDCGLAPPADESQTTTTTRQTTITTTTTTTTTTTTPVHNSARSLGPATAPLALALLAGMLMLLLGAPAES

[31] = molecular target: T10, RNA-binding protein pos-1 (Caenorhabditis elegans, UniProt G5EF15); experiment: disruptors of C. elegans POS-1 RNA interaction – biochemical, fluorescence polarization, dose response (AID 1964);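 also: purified POS-1 fused to maltose binding protein made in E. coli; potency of compounds blocking POS-1 binding to fluorescent RNA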
T10 sequence (G5EF15 whole entry): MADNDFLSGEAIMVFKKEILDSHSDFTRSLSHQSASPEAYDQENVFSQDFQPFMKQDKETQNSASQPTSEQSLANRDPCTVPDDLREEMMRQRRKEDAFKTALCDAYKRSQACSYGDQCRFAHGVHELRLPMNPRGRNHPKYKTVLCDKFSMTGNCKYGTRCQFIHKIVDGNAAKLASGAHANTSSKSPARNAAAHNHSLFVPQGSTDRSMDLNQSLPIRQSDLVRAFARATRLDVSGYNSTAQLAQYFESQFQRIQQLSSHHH

[32] = molecular target: T7, Intestinal-type alkaline phosphatase; experiment: activation of human intestinal alkaline phosphatase – biochemical, luminescent, uHTS hits, set 2, dose response (AID 488817); type: functional;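 also: potency of activators that raise enzyme activity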
[33] = molecular target: T11, Zinc finger protein mex-5 (Caenorhabditis elegans, UniProt Q9XUB2); experiment: potency of MEX-5 RNA-binding blockers – biochemical, C. elegans, fluorescence polarization, dose response (AID 1960)
T11 sequence (Q9XUB2 whole entry): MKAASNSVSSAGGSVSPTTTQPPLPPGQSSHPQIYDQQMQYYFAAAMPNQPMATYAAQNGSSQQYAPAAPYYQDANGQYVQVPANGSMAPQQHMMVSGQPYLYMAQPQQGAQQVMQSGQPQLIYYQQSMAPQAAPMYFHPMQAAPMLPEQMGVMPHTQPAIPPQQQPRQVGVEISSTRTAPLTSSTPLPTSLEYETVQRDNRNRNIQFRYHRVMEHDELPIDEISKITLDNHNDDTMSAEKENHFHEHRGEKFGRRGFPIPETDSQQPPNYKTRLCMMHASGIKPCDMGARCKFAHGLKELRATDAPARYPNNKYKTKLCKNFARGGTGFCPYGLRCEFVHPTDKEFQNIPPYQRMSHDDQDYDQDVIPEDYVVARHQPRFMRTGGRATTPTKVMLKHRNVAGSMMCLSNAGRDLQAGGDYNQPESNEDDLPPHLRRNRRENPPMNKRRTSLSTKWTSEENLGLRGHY

[34] = molecular target: T9, Intestinal-type alkaline phosphatase; experiment: PubChem AID 488875; type: functional

Cc1ccc(S(=O)(=O)n2cnc3ccccc32)cc1
IC50 [1]: > 20 µM (inactive) | IC50 [2]: > 5 µM (inactive) | IC50 [3]: > 20 µM (inactive)

Cc1ccc(OC(C)C(=O)Nc2ccc3c(c2)n(C)c(=O)n3C)c(C)c1 (centres undefined)
IC50 [4]: 35 µM (active) | IC50 [5]: 16.2 µM (active) | IC50 [6]: 4.39 µM (active) | IC50 [7]: > 100 µM (inactive)

O=C(O)c1ccccc1Nc1cccc2c1C(=O)c1ccccc1C2=O
IC50 [8]: 1.05 µM (active)

COC(=O)C(O)(c1ccc(N(C)C(=O)c2ccc(Cl)c(Cl)c2)cc1)C(F)(F)F (centres undefined)
IC50 [9]: > 14.6 µM (not active) | IC50 [10]: 15 µM (not active)

O=C(CSc1nc(O)c2ccccc2n1)c1ccc(O)c(O)c1
IC50 [11]: > 59.6 µM (not active) | IC50 [12]: 13 µM (active) | IC50 [13]: 10.7 µM (active) | IC50 [14]: 4.62 µM (active) | IC50 [15]: 1.46 µM (active) | IC50 [16]: 0.337 µM (not active) | IC50 [17]: 23.4 µM (active)

CC1CN(C2=Nc3cccc4cccc2c34)CC(C)O1 (centres undefined)
IC50 [18]: 18.2 µM (not active) | IC50 [19]: 9.4 µM (active)

CCN(CC)CCNC1=NCCn2c1cc1cc(OC)ccc12
IC50 [20]: > 79.4 µM (not active) | CC50 [21]: > 40 µM (active)

CCOc1ccc(Br)cc1C(=O)Nc1ccc(C(=O)NCC(C)C)cc1
EC50 [22]: > 120 µM (not active) | EC50 [23]: > 55.7 µM (not active) | IC50 [24]: > 39.8 µM (not active) | IC50 [25]: > 39.8 µM (not active) | EC50 [26]: 21.6 µM (active) | EC50 [27]: 18.1 µM (active)

O=C(NNC(=S)NC(=O)c1ccccc1[N+](=O)[O-])c1ccccc1O
EC50 [28]: 9.16 µM (active) | EC50 [29]: 11.2 µM (active) | IC50 [30]: > 100 µM (inactive) | EC50 [31]: 134 µM (active) | EC50 [32]: 9.62 µM (active) | EC50 [33]: 32.2 µM (active) | EC50 [34]: > 100 µM (inactive)
